The numbers were not newly measured in US6538179B1, “Enhanced starch biosynthesis in seeds” (Monsanto Technology LLC, priority 1990, dated 2003), which cites them from elsewhere.

This series addresses plant ADPGPP (Solanum tuberosum, UniProt P23509+Q00081).

Structures are written as SMILES.

Chain of plant ADPGPP (Q00081 whole entry): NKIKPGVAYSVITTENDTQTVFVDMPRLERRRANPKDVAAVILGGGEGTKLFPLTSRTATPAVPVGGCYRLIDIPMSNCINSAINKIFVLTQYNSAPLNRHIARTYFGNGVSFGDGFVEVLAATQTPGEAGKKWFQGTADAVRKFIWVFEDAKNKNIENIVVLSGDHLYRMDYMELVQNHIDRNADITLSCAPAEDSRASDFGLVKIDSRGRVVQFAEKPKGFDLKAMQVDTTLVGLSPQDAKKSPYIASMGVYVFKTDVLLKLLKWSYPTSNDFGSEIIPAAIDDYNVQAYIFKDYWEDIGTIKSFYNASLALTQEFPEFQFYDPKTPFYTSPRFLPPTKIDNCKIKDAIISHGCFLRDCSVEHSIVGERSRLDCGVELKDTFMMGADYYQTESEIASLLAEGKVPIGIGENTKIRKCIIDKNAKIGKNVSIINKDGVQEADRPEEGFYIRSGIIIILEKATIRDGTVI
Chain of plant ADPGPP (P23509 73-521): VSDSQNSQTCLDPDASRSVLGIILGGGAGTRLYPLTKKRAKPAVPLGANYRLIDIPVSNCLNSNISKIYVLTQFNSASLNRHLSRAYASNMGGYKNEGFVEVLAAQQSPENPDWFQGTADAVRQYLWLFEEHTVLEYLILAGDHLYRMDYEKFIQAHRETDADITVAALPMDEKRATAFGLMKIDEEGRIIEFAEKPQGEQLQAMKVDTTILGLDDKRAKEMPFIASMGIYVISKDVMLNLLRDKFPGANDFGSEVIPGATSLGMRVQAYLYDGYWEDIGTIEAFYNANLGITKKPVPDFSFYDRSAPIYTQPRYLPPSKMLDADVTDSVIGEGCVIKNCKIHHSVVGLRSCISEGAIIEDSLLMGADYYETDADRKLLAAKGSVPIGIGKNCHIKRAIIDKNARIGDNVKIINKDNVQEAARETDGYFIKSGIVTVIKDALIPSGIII

Take `O=C(O)[C@H](O)COP(=O)(O)O` [3-PGA, 3-phosphoglycerate]: the EC50 (activation of ADPGPP by 3-PGA, read-out: A0.5) was 75 µM.
As for `O=P(O)(O)O` [Pi, inorganic phosphate], under “read-out: I0.5, inhibition of ADPGPP by Pi”, the IC50 was 45 µM.
